Measured values taken from patent publication US9783574B2, “Cardiovascular therapeutics” (Otago Innovation Limited, priority 2011, dated 2017).
No end group written: not given here.

How the values were obtained:
[1] = system: isolated rat heart; experiment: Modified BNPsp peptides, preconditioning in isolated rat heart (Example 6: 40 min global ischemia, 90 min reperfusion); conditions: preconditioned 30 minutes with 0.3 nmol/L; n=3
Experimental: This set of experiments assessed modified BNPsp(17-26) peptides. This experiment repeated the preconditioning work outlined in the isolated rat heart model Examples, but with C-terminal ablated and an N-terminal extended version of BNPsp(17-26). Hearts were preconditioned with 30 minute doses of 0.3 nmol/L BNPsp(16-26) and BNPsp(17-24) prior to 40 minutes of global ischemia and 90 minutes reperfusion. Cardiac contractile and perfusion pressure indices were recorded.

[2] = in vivo; conditions: sheep, iv
Experimental: In this set of experiments, four normal healthy sheep were infused with human BNPsp(17-26) at 100-1000 ug/kg·min−1 to document any effects upon normal blood pressure, heart rate or renal function. This experiment was carried out to determine achieved circulating levels of BNPsp(17-26) in response to the dose given and to document any significant effects upon haemodynamic, renal or hormonal indices.

[3] = system: normal, healthy sheep; conditions: in vivo
Excerpt: Such a response is indicative of a well tolerated agent. […] This is a favourable profile in normal health.

Sequence | haemodynamic protective profile (developed pressure) [1] | half-life [2] [min] | haemodynamics, renal function or circulating biomarkers [3]
LHLAFLGG (listed as Homo sapiens) [BNPsp(17-24), modified peptide with two C-terminal amino acids removed] | protective effect | – | –
LHLAFLGGRS [BNPsp(17-26), LHLAFLGGRS] | – | < 1 | no detectable changes
